pIC50: −log10 of the molar value.
Test system: 422866-222-R5-J1-PDC complex spheroid viability
Assay: Anticancer human tumor 422866-222-R5-J1-PDC patient-derived pancreatic adenocarcinoma cell line growth inhibition [POLQ]
Settings: for pIC50: curve of first compound; for viability, T/C: stronger effect = lower value
Method in brief: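 Complex spheroid viability model combining PDC tumour cells with endothelial (HUVEC) and MSC stromal cells. Novobiocin, ART-558 or RP6685 were tested singly and in combination with standard and investigational anticancer drugs. Each was titrated in half-log steps from near clinical Cmax, or from 10 microM where Cmax was unknown.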

[1] = second compound 0.0316 µM, first compound 0.0316 µM
[2] = second compound 0.0316 µM, first compound 0.1 µM
[3] = second compound 0.0316 µM, first compound 0.316 µM
[4] = second compound 0.0316 µM, first compound 1 µM
[5] = second compound 0.0316 µM, first compound 3.16 µM
[6] = second compound 0.0316 µM, first compound 10 µM
[7] = second compound 0.1 µM, first compound 0.0316 µM
[8] = second compound 0.1 µM, first compound 0.1 µM
[9] = second compound 0.1 µM, first compound 0.316 µM
[10] = second compound 0.1 µM, first compound 1 µM
[11] = second compound 0.1 µM, first compound 3.16 µM
[12] = second compound 0.1 µM, first compound 10 µM
[13] = second compound 0.316 µM, first compound 0.0316 µM
[14] = second compound 0.316 µM, first compound 0.1 µM
[15] = second compound 0.316 µM, first compound 0.316 µM
[16] = second compound 0.316 µM, first compound 1 µM
[17] = second compound 0.316 µM, first compound 3.16 µM
[18] = second compound 0.316 µM, first compound 10 µM
[19] = second compound 1 µM, first compound 0.0316 µM
[20] = second compound 1 µM, first compound 0.1 µM
[21] = second compound 1 µM, first compound 0.316 µM
[22] = second compound 1 µM, first compound 1 µM
[23] = second compound 1 µM, first compound 3.16 µM
[24] = second compound 1 µM, first compound 10 µM
[25] = second compound 3.16 µM, first compound 0.0316 µM
[26] = second compound 3.16 µM, first compound 0.1 µM
[27] = second compound 3.16 µM, first compound 0.316 µM
[28] = second compound 3.16 µM, first compound 1 µM
[29] = second compound 3.16 µM, first compound 3.16 µM
[30] = second compound 3.16 µM, first compound 10 µM
[31] = second compound 10 µM, first compound 0.0316 µM
[32] = second compound 10 µM, first compound 0.1 µM
[33] = second compound 10 µM, first compound 0.316 µM
[34] = second compound 10 µM, first compound 1 µM
[35] = second compound 10 µM, first compound 3.16 µM
[36] = second compound 10 µM, first compound 10 µM
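Further: spheroids exposed to compounds for one week before readout.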
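Wherever viability, T/C is given: percent of DMSO vehicle wells luminescence so 100% = untreated viability.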

In the case of CCCS(=O)(=O)Nc1ccc(F)c(C(=O)c2c[nH]c3ncc(-c4ccc(Cl)cc4)cc23)c1F + Nc1ccc(C#CCN(C(=O)Cc2ncc(C(F)(F)F)cc2C(F)(F)F)c2ccc(F)cc2)nn1, the pIC50 (second compound 0.0316 µM) was < 5.00, the pIC50 (second compound 0.1 µM) was < 5.00 and the pIC50 (second compound 0.316 µM) was < 5.00. The pIC50 (second compound 1 µM) was < 5.00, the pIC50 (second compound 3.16 µM) was < 5.00 and the pIC50 (second compound 10 µM) was < 5.00. For the same compound, the viability, T/C [1] was 101%, the viability, T/C [2] was 103% and the viability, T/C [3] was 107%. The viability, T/C [4] was 181%, the viability, T/C [5] was 197% and the viability, T/C [6] was 118%. It also gave a viability, T/C [7] of 115%, a viability, T/C [8] of 107% and a viability, T/C [9] of 115%. The viability, T/C [10] was 182%, the viability, T/C [11] was 173% and the viability, T/C [12] was 118%. For the same compound, the viability, T/C [13] was 105%, the viability, T/C [14] was 96.4% and the viability, T/C [15] was 113%. For the same compound, the viability, T/C [16] was 162%, the viability, T/C [17] was 164% and the viability, T/C [18] was 129%. It also gave a viability, T/C [19] of 103%, a viability, T/C [20] of 112% and a viability, T/C [21] of 125%. For the same compound, the viability, T/C [22] was 133%, the viability, T/C [23] was 193% and the viability, T/C [24] was 113%. It also gave a viability, T/C [25] of 107%, a viability, T/C [26] of 124% and a viability, T/C [27] of 138%. For the same compound, the viability, T/C [28] was 127%, the viability, T/C [29] was 153% and the viability, T/C [30] was 114%. For the same compound, the viability, T/C [31] was 125%, the viability, T/C [32] was 138% and the viability, T/C [33] was 166%. For the same compound, the viability, T/C [34] was 154%, the viability, T/C [35] was 166% and the viability, T/C [36] was 96.7%.
In the case of O=c1[nH]cc(F)c(=O)[nH]1 + Cc1cccc(N(C)C(=O)C2C(O)CCN2c2nc(C)cc(C(F)(F)F)c2C#N)c1, the pIC50 (second compound 0.0316 µM) was < 5.00, the pIC50 (second compound 0.1 µM) was < 5.00 and the pIC50 (second compound 0.316 µM) was < 5.00. For the same compound, the pIC50 (second compound 1 µM) was < 5.00, the pIC50 (second compound 3.16 µM) was < 5.00 and the pIC50 (second compound 10 µM) was < 5.00. It also gave a viability, T/C [1] of 117%, a viability, T/C [2] of 98.5% and a viability, T/C [3] of 102%. It also gave a viability, T/C [4] of 88.2%, a viability, T/C [5] of 82.1% and a viability, T/C [6] of 74.9%. For the same compound, the viability, T/C [7] was 111%, the viability, T/C [8] was 92.2% and the viability, T/C [9] was 92.3%. It also gave a viability, T/C [10] of 90.8%, a viability, T/C [11] of 66.9% and a viability, T/C [12] of 74.3%. For the same compound, the viability, T/C [13] was 118%, the viability, T/C [14] was 109% and the viability, T/C [15] was 99.9%. It also gave a viability, T/C [16] of 84.3%, a viability, T/C [17] of 81.1% and a viability, T/C [18] of 78.2%. It also gave a viability, T/C [19] of 111%, a viability, T/C [20] of 96.6% and a viability, T/C [21] of 97.9%. The viability, T/C [22] was 101%, the viability, T/C [23] was 84.8% and the viability, T/C [24] was 83.2%. For the same compound, the viability, T/C [25] was 107%, the viability, T/C [26] was 98.6% and the viability, T/C [27] was 86.3%. For the same compound, the viability, T/C [28] was 83%, the viability, T/C [29] was 83.8% and the viability, T/C [30] was 87.6%. For the same compound, the viability, T/C [31] was 90.6%, the viability, T/C [32] was 88.8% and the viability, T/C [33] was 99.7%. The viability, T/C [34] was 80.6%, the viability, T/C [35] was 86.7% and the viability, T/C [36] was 67.8%.

Reference: PubChem BioAssay AID1963844 (Molecular Pharmacology Branch, DTP, NCI, 2024)
